Here are results for 20 compounds from article PMC7692735, “Bromo-Cyclobutenaminones as New Covalent UDP-N-Acetylglucosamine Enolpyruvyl Transferase (MurA) Inhibitors” (Pharmaceuticals, 2020).

The subject of data set [1] is MurA Cys115. Put plainly: MS/MS of tryptic digested MurA, covalent labelling. The format is binding, E. coli. The conditions noted are these: tryptic peptide amino acids 104–120. The method, then: The tryptic digestion method was adapted from our former publication.
Briefly, 50 μL of MurA (42 μM) and 10 μL 0.2% (w/v) RapiGest SF (Waters Corp., Milford, MA, USA) solution buffered with 50 mM ammonium bicarbonate (NH4HCO3) were mixed (pH = 7.8). 4.5 μL of 45 mM DTT (~200 nmol) in 100 mM NH4HCO3 was added and the mixture kept at 37.5 °C for 30 min. After cooling the sample to room temperature, 7.5 μL of 100 mM iodoacetamide (750 nmol) in 100 mM NH4HCO3 was added and the mixture placed in the dark at room temperature for 30 min. The reduced and alkylated protein was then digested by 10 μL (1 mg mL^−1) trypsin (the enzyme-to-protein ratio was 1:10) (Sigma, St Louis, MO, USA). The sample was incubated at 37 °C overnight. To degrade the surfactant, 7 μL of HCOOH (500 mM) solution was added to the digested […] sample to obtain the final 40 mM (pH ≈ 2) solution which was incubated at 37 °C for 45 min. For LC-MS analysis, the acid-treated sample was centrifuged for 5 min at 13,000 rpm.
A QTRAP 6500 triple quadruple—linear ion trap mass spectrometer, equipped with a Turbo V source in electrospray mode (AB Sciex Pte. Ltd., Framingham, MA, USA) and an Agilent 1100 Binary Pump HPLC system (Agilent Technologies, Waldbronn, Germany) equipped with an autosampler was used for LC-MS/MS analysis. […]

For data set [2], the target named is T1, MurA (E. coli) (Escherichia coli, UniProt P0A749).
T1 construct: made in house; host or cells: E. coli
Put plainly: MurA assay, colorimetric malachite green method. It is filed as biochemical. The conditions noted are these: for IC50: read-out: IC50 (converted); for MurA inhibition in screening: 500 μM screening concentration. As for the experimental part:
MurAEC protein was recombinant, expressed in E. coli. The inhibition of MurA was monitored with the colorimetric malachite green method in which orthophosphate generated during the reaction is measured. MurA enzyme (E. coli) was pre-incubated with the substrate UNAG and compound for 30 min at 37 °C. The reaction was started by the addition of the second substrate PEP, resulting in a mixture with a final volume of 50 μL. The mixtures contained: 50 mM Hepes, pH 7.8, 0.005% Triton X-114, 200 μM UNAG, 100 μM PEP, purified MurA (diluted in 50 mM Hepes, pH 7.8) and 500 μM of each tested compound dissolved in DMSO. All compounds were soluble in the assay mixtures containing 5% DMSO (v/v). After incubation for 15 min at 37 °C, the enzyme reaction was terminated by adding Biomol® reagent (100μL) and the absorbance was measured at 650 nm after 5 min. All of the experiments were run in duplicate. Remaining activities (RAs) were calculated with respect to similar assays without the tested compounds and with 5% DMSO. The IC50 values, the concentration of the compound at which the remaining activity was 50%, were determined by measuring the remaining activities at seven different compound concentrations. The data are expressed as means of duplicate determinations, and the standard deviations were within 10% of the given values. A time-dependent inhibition assay was also performed. The IC50 values were determined at 0, 15 and 30 min of pre-incubation.

In data set [3] the test system is MurA (E. cloacae). Also noted: method as in PMID 24755374, PMID 25521652, PMID 11600375, PMID 30461051. Conditions: known MurA inhibitors, Figure 1; cited from earlier work.
The target of data set [4] is T1, MurA (E. coli). The conditions noted are these: known MurA inhibitors, Figure 1; cited from earlier work.
In data set [5] the test system is E. coli (ATCC 25922). Put plainly: Antimicrobial testing (MIC), broth microdilution. The format is cell-based. Conditions: Escherichia coli, ATCC25922, positive control. As for the experimental part:
(§1) Antimicrobial testing was carried out by the broth microdilution method in 96-well plate format following the CLSI guidelines and European Committee for Antimicrobial Susceptibility Testing recommendations. Bacterial suspension of specific bacterial strain, equivalent to 0.5 McFarland turbidity standard, was diluted with cation-adjusted Mueller Hinton broth to obtain a final inoculum of 10^5 CFU/mL. Compounds dissolved in DMSO and inoculum were mixed together and incubated for 20–24 h at 37 °C. After incubation the minimal inhibitory concentration (MIC) values were determined by visual inspection as the lowest dilution of compounds showing no turbidity. The MICs were determined against S. aureus (ATCC 29213) and E. coli (ATCC 25922) bacterial strains. Tetracycline was used as a positive control on every assay plate, showing a MIC of 0.5 µg/mL and 1 µg/mL for S. aureus and E. coli, respectively.
Background: In broth dilution the organism is exposed to a series of concentrations in liquid medium.

Data set [6] concerns S. aureus (ATCC 29213). Put plainly: Antimicrobial testing (MIC), broth microdilution. It is filed as cell-based. Conditions: Staphylococcus aureus, ATCC29213, positive control. The method, then:
as §1

Where [7] appears, read: fragment 500 μM, 30 min preincubation at 37 °C, read-out: RA (remaining activity) at 500 µM.
Where [8] appears, read: fragment 500 μM, 30 min preincubation at 37 °C.

One may read the IC50 as the midpoint of a concentration-inhibition curve. As a reminder, the remaining activity is what remains of the control signal, in per cent. In general, MIC refers to the lowest concentration that inhibits growth of the organism. A low value points to greater potency.

Values after ≈ are worked out from the molar mass of the structure shown. Where two headings read alike, the source gives them in different places. Bounds are passed on as bounds.

T1 sequence (P0A749 whole entry): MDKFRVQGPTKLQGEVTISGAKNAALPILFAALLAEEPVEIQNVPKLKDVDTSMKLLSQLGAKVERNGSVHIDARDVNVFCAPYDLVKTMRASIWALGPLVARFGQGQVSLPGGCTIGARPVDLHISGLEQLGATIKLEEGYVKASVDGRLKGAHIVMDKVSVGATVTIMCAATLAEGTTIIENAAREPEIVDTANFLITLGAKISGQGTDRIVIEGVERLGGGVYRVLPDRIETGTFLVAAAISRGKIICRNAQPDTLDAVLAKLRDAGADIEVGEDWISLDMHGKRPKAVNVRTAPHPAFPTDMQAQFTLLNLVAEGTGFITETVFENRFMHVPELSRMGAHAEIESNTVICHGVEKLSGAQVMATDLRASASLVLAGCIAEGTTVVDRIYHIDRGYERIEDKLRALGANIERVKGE

With `CC(=O)N(C)C1=C(Br)C(=O)C1(C)C` [17b, N-(2-bromo-4,4-dimethyl-3-oxocyclobut-1-en-1-yl)-N-methylacetamide], the “Covalent labelling site on MurA by MS/MS” value in data set [1] is listed as “labeling on Cys115”. Besides, the IC50 in data set [2] (0 min preincubation) is 356 ± 29 µM; in data set [2] (15 min preincubation), 149 ± 15 µM; in data set [2] (30 min preincubation), 128 µM. Further, in data set [2] (setting [7]), the remaining activity at 500 µM was found to be 8 ± 2%.
As for `CC1=C(O)C(=O)[C@@H]2O[C@@H]2C1=O` [terreic acid], the IC50 in data set [3] is 14 µM.
In the case of `CNC1=CC(=O)C1(C)C` [14a, 3-(Methylamino)-4,4-dimethylcyclobut-2-en-1-one], the remaining activity at 500 µM in data set [2] (setting [7]) was found to be 93 ± 4%.
Consider `Ic1cncnc1` [compound 10], for which, in data set [4], the 50% inhibitory concentration (IC50) is 3.8 µM.
As to `C=C1C(=O)OCC1O` (racemic) [(±)-tulipaline B], the IC50 in data set [4] was 2.2 µM.
Consider `CCN(CC)C1=CC(=O)C1(C)C` [14c, 3-(Diethylamino)-4,4-dimethylcyclobut-2-en-1-one], for which the remaining activity at 500 µM in data set [2] (setting [7]) turned out to be 96 ± 2%.
As to `CCOC1=CC(=O)C1(C)C` [compound 12, 3-Ethoxy-4,4-dimethylcyclobut-2-en-1-one], the “MurA inhibition in screening” value in data set [2] is “to no avail”. Also, the remaining activity at 500 µM in data set [2] (setting [7]) turned out to be 98 ± 2%.
With `COc1ccc(CN(C)C2=C(Br)C(=O)C2(C)C)cc1` [15d, 2-Bromo-3-((4-methoxybenzyl)(methyl)amino)-4,4-dimethylcyclobut-2-en-1-one], the IC50 in data set [2] (30 min preincubation) was 363 µM. In addition, in data set [2] (setting [8]), the “RA (remaining activity) at 500 µM” value is recorded as 13 ± 1%. In data set [2] (read-out: RA (remaining activity) at 500 µM, fragment 500 μM, 30 min preincubation at 37 °C), the remaining activity at 500 µM is under 15%.
With `CN(CC(F)(F)F)C1=CC(=O)C1(C)C` [14e, 4,4-Dimethyl-3-(methyl(2,2,2-trifluoroethyl)amino)cyclobut-2-en-1-one], in data set [2] (setting [7]), the remaining activity at 500 µM stood at 98 ± 7%.
As for `CNC1=C(Br)C(=O)C1(C)C` [15a, 2-Bromo-4,4-dimethyl-3-(methylamino)cyclobut-2-en-1-one], the remaining activity at 500 µM in data set [2] (setting [7]) was determined as 100 ± 7%.
In the case of `O=C1O/C(=C\c2cccc3ccccc23)C(O)=C1c1ccc(C(F)(F)F)cc1` [compound 5], in data set [4], the IC50 was 39 µM.
`CN(C)[C@@H]1C(O)=C(C(N)=O)C(=O)[C@@]2(O)C(O)=C3C(=O)c4c(O)cccc4[C@@](C)(O)[C@H]3C[C@@H]12` [Tetracycline]: the MIC in data set [5] was found to be 1 µg/mL (≈ 2.25 µM); in data set [6], 0.5 µg/mL (≈ 1.13 µM).
In the case of `C=C(C(=O)O)[C@@H]1[C@@H](CCCCCCCC)OC(=O)[C@@H]1O` [compound 8], the IC50 in data set [4] was 2.8 µM.
Turning to `CN(C(=O)c1ccccc1)C1=CC(=O)C1(C)C` [16a, N-(4,4-dimethyl-3-oxocyclobut-1-en-1-yl)-N-methylbenzamide], the remaining activity at 500 µM in data set [2] (setting [7]) was 99 ± 8%.
For `CN(C)C1=CC(=O)C1(C)C` [14b, 3-(Dimethylamino)-4,4-dimethylcyclobut-2-en-1-one], the remaining activity at 500 µM in data set [2] (setting [7]) came out at 99 ± 1%.
`CN(CC(F)(F)F)C1=C(Br)C(=O)C1(C)C` [15e, 2-Bromo-4,4-dimethyl-3-(methyl(2,2,2-trifluoroethyl)amino)cyclobut-2-en-1-one]: the “MurA inhibition in screening” value in data set [2] was “no effect”. The remaining activity at 500 µM in data set [2] (setting [7]) stood at 84 ± 4%.
`COc1ccc(CN(C)C2=CC(=O)C2(C)C)cc1` [14d, 3-((4-Methoxybenzyl)(methyl)amino)-4,4-dimethylcyclobut-2-en-1-one]: the remaining activity at 500 µM in data set [2] (setting [7]) came to 99 ± 3%.
As for “2-Bromo-4,4-dimethyl-3-(methylamino)cyclobut-2-en-1-one [15b]”, in data set [2] (setting [8]), the “RA (remaining activity) at 500 µM” value worked out at 91 ± 5%.
Consider `CCN(CC)C1=C(Br)C(=O)C1(C)C` [15c, 2-Bromo-3-(diethylamino)-4,4-dimethylcyclobut-2-en-1-one], for which, in data set [2] (setting [7]), the remaining activity at 500 µM worked out at 88 ± 6%.
Regarding `C=Cc1cncs1` [compound 9], the IC50 in data set [4] was 66 µM.
